Common to all, as to test: cell-based
In assay [1] the target is hNav1.3 (Homo sapiens, UniProt Q9NY46). Conditions: IonWorks Quattro, read-out: IWQ Use Nav1.3. For orientation: Patch clamp records ionic current or voltage across a cell membrane.
In assay [2] the target is hNav1.7 (Homo sapiens, UniProt Q15858). Format: cell-based. Conditions: IonWorks Quattro, read-out: IWQ Use Nav1.7.
Assay [3] addresses hNav1.5 (Homo sapiens, UniProt Q14524). Conditions: IonWorks Quattro, read-out: IWQ Use Nav1.5.
Where [4] appears, read: clamped to −110 mV, depolarized to −10 mV, 5 min after compound, n=2.

Like-named read-outs stand apart in the source and are kept apart here. Positions of bridges follow the written chain, without caps; N, C: chain ends. Non-standard residues stand in square brackets, D forms with d. Residues, ends and D or L forms follow the SMILES beside them. NMeF = CN[C@@H](Cc1ccccc1)C(=O)O

hNav1.3, sequence (Q9NY46 whole entry, looked up): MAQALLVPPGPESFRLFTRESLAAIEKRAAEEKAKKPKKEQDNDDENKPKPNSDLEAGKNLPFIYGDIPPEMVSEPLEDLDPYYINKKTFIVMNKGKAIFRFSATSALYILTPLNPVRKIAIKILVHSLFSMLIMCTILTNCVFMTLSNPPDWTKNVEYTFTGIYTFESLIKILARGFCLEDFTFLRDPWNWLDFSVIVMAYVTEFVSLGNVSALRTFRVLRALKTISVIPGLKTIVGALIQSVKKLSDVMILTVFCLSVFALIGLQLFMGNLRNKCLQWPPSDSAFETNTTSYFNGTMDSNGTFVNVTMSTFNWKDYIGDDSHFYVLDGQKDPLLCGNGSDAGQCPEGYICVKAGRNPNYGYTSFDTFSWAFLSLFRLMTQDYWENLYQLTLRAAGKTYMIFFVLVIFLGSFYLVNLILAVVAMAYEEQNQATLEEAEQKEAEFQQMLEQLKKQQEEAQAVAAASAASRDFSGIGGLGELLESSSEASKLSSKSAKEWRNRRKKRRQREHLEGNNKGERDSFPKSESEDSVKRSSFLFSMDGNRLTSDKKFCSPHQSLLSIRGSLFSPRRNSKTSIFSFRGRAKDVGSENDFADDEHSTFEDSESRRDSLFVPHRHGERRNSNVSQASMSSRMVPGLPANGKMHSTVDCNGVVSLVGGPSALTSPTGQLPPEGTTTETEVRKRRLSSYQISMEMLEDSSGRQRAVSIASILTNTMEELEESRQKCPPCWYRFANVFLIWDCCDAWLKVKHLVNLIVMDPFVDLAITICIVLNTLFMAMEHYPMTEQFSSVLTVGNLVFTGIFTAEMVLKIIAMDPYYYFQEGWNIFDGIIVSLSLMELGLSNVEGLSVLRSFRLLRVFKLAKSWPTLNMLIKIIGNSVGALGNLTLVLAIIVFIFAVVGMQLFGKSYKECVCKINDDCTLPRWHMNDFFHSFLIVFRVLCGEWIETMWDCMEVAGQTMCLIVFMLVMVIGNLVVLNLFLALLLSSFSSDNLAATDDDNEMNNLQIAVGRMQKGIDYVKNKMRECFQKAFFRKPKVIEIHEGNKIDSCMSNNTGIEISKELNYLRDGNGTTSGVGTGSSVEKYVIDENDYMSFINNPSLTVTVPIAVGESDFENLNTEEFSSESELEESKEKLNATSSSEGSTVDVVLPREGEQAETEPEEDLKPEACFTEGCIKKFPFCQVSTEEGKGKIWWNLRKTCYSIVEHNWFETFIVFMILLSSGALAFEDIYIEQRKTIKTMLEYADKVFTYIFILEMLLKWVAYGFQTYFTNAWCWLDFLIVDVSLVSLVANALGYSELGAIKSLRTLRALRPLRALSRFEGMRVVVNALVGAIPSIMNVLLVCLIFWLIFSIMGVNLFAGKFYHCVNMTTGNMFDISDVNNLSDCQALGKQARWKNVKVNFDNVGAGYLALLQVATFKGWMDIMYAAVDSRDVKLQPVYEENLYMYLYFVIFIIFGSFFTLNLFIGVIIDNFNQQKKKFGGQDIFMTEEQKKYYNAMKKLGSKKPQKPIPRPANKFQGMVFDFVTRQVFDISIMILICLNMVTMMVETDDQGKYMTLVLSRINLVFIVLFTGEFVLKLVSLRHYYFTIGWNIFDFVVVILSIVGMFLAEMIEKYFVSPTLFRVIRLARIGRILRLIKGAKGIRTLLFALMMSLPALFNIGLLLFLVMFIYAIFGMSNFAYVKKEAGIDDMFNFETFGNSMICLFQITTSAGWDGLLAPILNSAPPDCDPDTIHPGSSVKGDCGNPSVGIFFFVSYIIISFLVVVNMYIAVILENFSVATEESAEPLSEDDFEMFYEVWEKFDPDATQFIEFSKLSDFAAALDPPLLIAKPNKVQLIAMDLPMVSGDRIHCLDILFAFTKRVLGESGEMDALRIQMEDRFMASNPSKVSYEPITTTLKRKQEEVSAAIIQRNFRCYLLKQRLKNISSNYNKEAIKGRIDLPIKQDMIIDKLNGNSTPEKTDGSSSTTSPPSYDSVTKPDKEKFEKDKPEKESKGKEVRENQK
hNav1.7, sequence (Q15858 whole entry, looked up): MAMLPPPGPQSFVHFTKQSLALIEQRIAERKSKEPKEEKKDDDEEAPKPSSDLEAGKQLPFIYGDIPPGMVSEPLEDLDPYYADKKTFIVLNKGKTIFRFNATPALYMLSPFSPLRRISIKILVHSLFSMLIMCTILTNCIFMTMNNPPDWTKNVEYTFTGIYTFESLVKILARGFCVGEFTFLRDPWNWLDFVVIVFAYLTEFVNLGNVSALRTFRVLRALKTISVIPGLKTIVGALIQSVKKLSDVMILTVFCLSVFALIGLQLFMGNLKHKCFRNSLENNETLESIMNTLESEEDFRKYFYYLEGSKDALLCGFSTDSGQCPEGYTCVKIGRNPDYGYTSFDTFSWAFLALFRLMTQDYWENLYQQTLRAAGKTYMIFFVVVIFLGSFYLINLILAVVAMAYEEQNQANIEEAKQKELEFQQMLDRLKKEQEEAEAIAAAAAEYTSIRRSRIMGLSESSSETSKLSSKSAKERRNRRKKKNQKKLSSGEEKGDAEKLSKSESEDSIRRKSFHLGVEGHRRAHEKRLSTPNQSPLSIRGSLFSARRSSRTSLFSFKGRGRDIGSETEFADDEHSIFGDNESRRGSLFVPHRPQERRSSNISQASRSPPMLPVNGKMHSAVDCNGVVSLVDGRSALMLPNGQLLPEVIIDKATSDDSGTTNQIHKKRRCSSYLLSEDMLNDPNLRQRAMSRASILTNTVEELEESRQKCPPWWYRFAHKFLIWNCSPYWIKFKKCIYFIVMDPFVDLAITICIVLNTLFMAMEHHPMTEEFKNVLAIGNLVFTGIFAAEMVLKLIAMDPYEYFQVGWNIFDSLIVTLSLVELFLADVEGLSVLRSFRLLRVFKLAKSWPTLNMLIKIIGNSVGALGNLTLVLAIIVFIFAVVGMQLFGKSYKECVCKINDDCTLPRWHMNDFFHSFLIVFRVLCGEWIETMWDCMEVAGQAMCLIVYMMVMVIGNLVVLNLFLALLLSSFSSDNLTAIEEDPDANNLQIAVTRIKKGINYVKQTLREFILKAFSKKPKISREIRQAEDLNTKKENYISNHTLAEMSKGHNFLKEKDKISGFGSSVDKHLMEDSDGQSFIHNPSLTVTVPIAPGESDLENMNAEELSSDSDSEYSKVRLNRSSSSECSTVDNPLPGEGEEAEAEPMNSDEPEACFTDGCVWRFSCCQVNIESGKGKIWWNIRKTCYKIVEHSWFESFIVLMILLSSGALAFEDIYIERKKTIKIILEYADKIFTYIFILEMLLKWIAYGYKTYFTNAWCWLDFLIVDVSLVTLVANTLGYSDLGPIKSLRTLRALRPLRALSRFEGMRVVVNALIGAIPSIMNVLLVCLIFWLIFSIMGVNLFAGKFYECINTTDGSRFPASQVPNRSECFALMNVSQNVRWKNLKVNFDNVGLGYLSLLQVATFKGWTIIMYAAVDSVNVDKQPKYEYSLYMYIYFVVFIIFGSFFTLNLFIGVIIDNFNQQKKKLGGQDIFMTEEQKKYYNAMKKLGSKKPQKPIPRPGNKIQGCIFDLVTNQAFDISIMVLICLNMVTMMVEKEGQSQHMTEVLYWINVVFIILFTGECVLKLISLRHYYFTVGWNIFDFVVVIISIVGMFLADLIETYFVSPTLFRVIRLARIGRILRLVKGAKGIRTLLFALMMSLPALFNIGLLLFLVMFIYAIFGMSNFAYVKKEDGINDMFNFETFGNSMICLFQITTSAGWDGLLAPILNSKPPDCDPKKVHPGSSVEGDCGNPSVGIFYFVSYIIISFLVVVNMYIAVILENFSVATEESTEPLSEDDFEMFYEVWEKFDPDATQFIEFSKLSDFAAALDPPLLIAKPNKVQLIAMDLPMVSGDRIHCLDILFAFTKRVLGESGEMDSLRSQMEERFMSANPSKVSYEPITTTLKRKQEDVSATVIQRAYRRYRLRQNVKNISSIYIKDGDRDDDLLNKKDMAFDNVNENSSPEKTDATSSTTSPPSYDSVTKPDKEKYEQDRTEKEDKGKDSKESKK

For `CC[C@H](C)[C@@H]1NC(=O)[C@@H]2CSSC[C@@H]3NC(=O)[C@H](C(C)C)NC(=O)[C@H](CC(C)C)NC(=O)[C@H](CC(N)=O)NC(=O)[C@@H]4CCCN4C(=O)[C@H](CCCNC(=N)N)NC(=O)[C@H](CSSC[C@H](NC(=O)[C@@H](N)CC(=O)O)C(=O)N[C@@H](CC(C)C)C(=O)NCC(=O)N[C@@H](Cc4ccccc4)C(=O)N[C@@H](CCSC)C(=O)N[C@@H](CCCNC(=N)N)C(=O)N[C@@H](CCCCN)C(=O)N2)NC(=O)[C@H](CSSC[C@@H](C(=O)N[C@@H](CCC(=O)O)C(=O)N[C@@H](Cc2ccc(O)cc2)C(=O)N[C@H](C(=O)N[C@@H](Cc2ccccc2)C(N)=O)C(C)C)NC(=O)[C@H](Cc2c[nH]c4ccccc24)NC(=O)[C@H](CCCCN)NC(=O)[C@H](Cc2cnc[nH]2)NC(=O)[C@H]([C@@H](C)O)NC(=O)[C@H](CCCNC(=N)N)NC(=O)[C@H](CO)NC3=O)NC(=O)[C@H](CCCCN)NC(=O)[C@H](CC(=O)O)NC(=O)[C@H](CC(N)=O)NC(=O)[C@H](CC(=O)O)NC(=O)[C@@H]2CCCN2C1=O` [compound 31] (H-DCLGFMRKCIPDNDKCCRPNLVCSRTHKWCEYVF-NH2; disulfide 2-17, 9-23, 16-30), the IC50 was found to be 13.1 µM in assay [1] (Table 25, use, […]); 23 µM in assay [2] (Table 25, use, […]); 21.7 µM in assay [3] (Table 25, use, […]).

Regarding `CC(C)C[C@@H]1NC(=O)[C@@H](NC(=O)[C@@H](N)CC(=O)O)CSSC[C@@H]2NC(=O)[C@@H]3CSSC[C@@H](C(=O)N[C@@H](CCCCN)C(=O)N[C@@H](Cc4ccc(O)cc4)C(=O)N[C@H](C(=O)N[C@@H](Cc4ccccc4)C(N)=O)C(C)C)NC(=O)[C@H](Cc4c[nH]c5ccccc45)NC(=O)[C@H](CCCCN)NC(=O)[C@H](Cc4c[nH]cn4)NC(=O)[C@H]([C@@H](C)O)NC(=O)[C@H](CCCNC(=N)N)NC(=O)[C@H](CO)NC(=O)[C@H](CSSC[C@H](NC(=O)[C@H](CCCCN)NC(=O)[C@H](CCCNC(=N)N)NC(=O)[C@H](Cc4ccccc4)NC(=O)[C@H](C)NC(=O)CNC1=O)C(=O)N[C@@H](CCC(=O)O)C(=O)N1CCC[C@H]1C(=O)N[C@@H](CC(=O)O)C(=O)N[C@@H](CC(N)=O)C(=O)N[C@@H](CC(=O)O)C(=O)N[C@@H](CCCCN)C(=O)N3)NC(=O)[C@H](C(C)C)NC(=O)[C@H](CC(C)C)NC(=O)[C@H](CC(N)=O)NC(=O)[C@@H]1CCCN1C(=O)[C@H](CCCNC(=N)N)NC2=O` [compound 724] (H-DCLGAFRKCEPDNDKCCRPNLVCSRTHKWCKYVF-NH2; disulfide 2-17, 9-23, 16-30), the IC50 is 0.32 µM in assay [1] (use-dependent block, hNav1.3); 0.38 µM in assay [2] (use-dependent block, hNav1.7); 36 µM in assay [3] (use-dependent block, hNav1.5).

Regarding `CC[C@H](C)[C@@H]1NC(=O)[C@@H]2CSSC[C@@H]3NC(=O)[C@H](C(C)C)NC(=O)[C@H](CC(C)C)NC(=O)[C@H](CC(N)=O)NC(=O)[C@@H]4CCCN4C(=O)[C@H](CCCNC(=N)N)NC(=O)[C@H](CSSC[C@H](NC(=O)[C@@H](N)CC(=O)O)C(=O)N[C@@H](CC(C)C)C(=O)NCC(=O)N[C@@H](Cc4ccccc4)C(=O)N[C@@H](C(C)C)C(=O)N[C@@H](CCCNC(=N)N)C(=O)N[C@@H](CCCCN)C(=O)N2)NC(=O)[C@H](CSSC[C@@H](C(=O)N[C@@H](CCCCN)C(=O)N[C@@H](Cc2ccc(O)cc2)C(=O)N[C@H](C(=O)N[C@@H](Cc2ccccc2)C(N)=O)C(C)C)NC(=O)[C@H](Cc2c[nH]c4ccccc24)NC(=O)[C@H](CCCCN)NC(=O)[C@H](Cc2c[nH]cn2)NC(=O)[C@H]([C@@H](C)O)NC(=O)[C@H](CCCNC(=N)N)NC(=O)[C@H](CO)NC3=O)NC(=O)[C@H](CCCCN)NC(=O)[C@H](CC(=O)O)NC(=O)[C@H](CC(N)=O)NC(=O)[C@H](CC(=O)O)NC(=O)[C@@H]2CCCN2C1=O` [SEQ ID NO: 287] (H-DCLGFVRKCIPDNDKCCRPNLVCSRTHKWCKYVF-NH2; disulfide 2-17, 9-23, 16-30), the figures for the IC50 in assay [1] (setting [4]), in assay [2] (setting [4]) and in assay [3] (setting [4]) were 0.08 µM, 0.09 µM and 9.23 µM, respectively.

Take `CC[C@H](C)[C@@H]1NC(=O)[C@@H]2CSSC[C@@H]3NC(=O)[C@H](C(C)C)NC(=O)[C@H](CC(C)C)NC(=O)[C@H](CC(N)=O)NC(=O)[C@@H]4CCCN4C(=O)[C@H](CCCNC(=N)N)NC(=O)[C@H](CSSC[C@H](NC(=O)[C@@H](N)CC(=O)O)C(=O)N[C@@H](CC(C)C)C(=O)NCC(=O)N[C@@H](Cc4ccccc4)C(=O)N[C@@H](CCSC)C(=O)N[C@@H](CCCNC(=N)N)C(=O)N[C@@H](CCCCN)C(=O)N2)NC(=O)[C@H](CSSC[C@@H](C(=O)N[C@@H](CCCCN)C(=O)N(C)[C@@H](Cc2ccccc2)C(=O)N[C@H](C(=O)N[C@@H](Cc2ccccc2)C(N)=O)C(C)C)NC(=O)[C@H](Cc2c[nH]c4ccccc24)NC(=O)[C@H](CCCCN)NC(=O)[C@H](Cc2c[nH]cn2)NC(=O)[C@H]([C@@H](C)O)NC(=O)[C@H](CCCNC(=N)N)NC(=O)[C@H](CO)NC3=O)NC(=O)[C@H](CCCCN)NC(=O)[C@H](CC(=O)O)NC(=O)[C@H](CC(N)=O)NC(=O)[C@H](CC(=O)O)NC(=O)[C@@H]2CCCN2C1=O` [compound 370] (H-DCLGFMRKCIPDNDKCCRPNLVCSRTHKWCK[NMeF]VF-NH2; disulfide 2-17, 9-23, 16-30): the IC50 is > 5 µM in assay [1] (Table 25, use, […]); > 5 µM in assay [2] (Table 25, use, […]); > 5 µM in assay [3] (Table 25, use, […]).

With `CC[C@H](C)[C@H](NC(=O)[C@H](CCC(=O)O)NC(=O)[C@H](Cc1ccc(O)cc1)NC(=O)[C@H](CCCCN)NC(=O)[C@@H]1CSSC[C@@H]2NC(=O)[C@H](CCCCN)NC(=O)[C@H](CC(=O)O)NC(=O)[C@H](CC(N)=O)NC(=O)[C@H](CC(=O)O)NC(=O)[C@@H]3CCCN3C(=O)[C@H](CO)NC(=O)[C@@H]3CSSC[C@H](NC(=O)[C@H](C(C)C)NC(=O)[C@H](CC(C)C)NC(=O)[C@H](CC(N)=O)NC(=O)[C@@H]4CCCN4C(=O)[C@H](CCCNC(=N)N)NC(=O)[C@H](CSSC[C@H](NC(=O)[C@@H](N)CC(=O)O)C(=O)N[C@@H](CC(C)C)C(=O)NCC(=O)N[C@@H](Cc4ccccc4)C(=O)N[C@@H](CCSC)C(=O)N[C@@H](CCCNC(=N)N)C(=O)N[C@@H](CCCCN)C(=O)N3)NC2=O)C(=O)N[C@@H](CO)C(=O)N[C@@H](CCCNC(=N)N)C(=O)N[C@@H](CCCCN)C(=O)N[C@@H](Cc2c[nH]cn2)C(=O)N[C@@H](CCCCN)C(=O)N[C@@H](Cc2c[nH]c3ccccc23)C(=O)N1)C(N)=O` [SEQ ID NO: 467] (H-DCLGFMRKCSPDNDKCCRPNLVCSRKHKWCKYEI-NH2; disulfide 2-17, 9-23, 16-30), the results for the IC50 in assay [1] (setting [4]), in assay [2] (setting [4]) and in assay [3] (setting [4]) were 1.15 µM, 4.34 µM and 7.21 µM, respectively.

On to `CC[C@@H]1NC(=O)[C@H](Cc2ccccc2)NC(=O)CNC(=O)[C@H](CC(C)C)NC(=O)[C@@H](NC(=O)[C@@H](N)CC(=O)O)CSSC[C@@H]2NC(=O)[C@@H]3CSSC[C@@H](C(=O)N[C@@H](CCCCN)C(=O)N[C@@H](Cc4ccc(O)cc4)C(=O)N[C@H](C(=O)N[C@@H](Cc4ccccc4)C(N)=O)C(C)C)NC(=O)[C@H](Cc4c[nH]c5ccccc45)NC(=O)[C@H](CCCCN)NC(=O)[C@H](Cc4c[nH]cn4)NC(=O)[C@H]([C@@H](C)O)NC(=O)[C@H](CCCNC(=N)N)NC(=O)[C@H](CO)NC(=O)[C@H](CSSC[C@H](NC(=O)[C@H](CCCCN)NC(=O)[C@H](CCCNC(=N)N)NC1=O)C(=O)N[C@@H]([C@@H](C)CC)C(=O)N1CCC[C@H]1C(=O)N[C@@H](CC(=O)O)C(=O)N[C@@H](CC(N)=O)C(=O)N[C@@H](CC(=O)O)C(=O)N[C@@H](CCCCN)C(=O)N3)NC(=O)[C@H](C(C)C)NC(=O)[C@H](CC(C)C)NC(=O)[C@H](CC(N)=O)NC(=O)[C@@H]1CCCN1C(=O)[C@H](CCCNC(=N)N)NC2=O` [SEQ ID NO: 124], for which the IC50 was determined as 0.1 µM in assay [1] (setting [4]), 0.11 µM in assay [2] (setting [4]) and 10.6 µM in assay [3] (setting [4]).

With `CCCC[C@@H]1NC(=O)CNC(=O)[C@H](CC(C)C)NC(=O)[C@@H](NC(=O)[C@@H](N)CC(=O)O)CSSC[C@@H]2NC(=O)[C@@H]3CSSC[C@@H](C(=O)N[C@@H](CCCCN)C(=O)N[C@@H](Cc4ccc(O)cc4)C(=O)N[C@H](C(=O)N[C@@H](Cc4ccccc4)C(N)=O)C(C)C)NC(=O)[C@H](Cc4c[nH]c5ccccc45)NC(=O)[C@H](CCCCN)NC(=O)[C@H](Cc4c[nH]cn4)NC(=O)[C@H]([C@@H](C)O)NC(=O)[C@H](CCCNC(=N)N)NC(=O)[C@H](CO)NC(=O)[C@H](CSSC[C@H](NC(=O)[C@H](CCCCN)NC(=O)[C@H](CCCNC(=N)N)NC(=O)[C@H](CC(C)C)NC1=O)C(=O)N[C@@H]([C@@H](C)CC)C(=O)N1CCC[C@H]1C(=O)N[C@@H](CC(=O)O)C(=O)N[C@@H](CC(N)=O)C(=O)N[C@@H](CC(=O)O)C(=O)N[C@@H](CCCCN)C(=O)N3)NC(=O)[C@H](C(C)C)NC(=O)[C@H](CC(C)C)NC(=O)[C@H](CC(N)=O)NC(=O)[C@@H]1CCCN1C(=O)[C@H](CCCNC(=N)N)NC2=O` [compound 638], the IC50 in assay [1] (use-dependent protocol, hNav1.3) is 0.099 µM; in assay [2] (use-dependent protocol, hNav1.7), 0.025 µM; in assay [3] (use-dependent protocol, hNav1.5) it was 10.6 µM.

(Values after patent publication US9340590B2 (priority 2011, dated 2016).)
